# Experiments:
# [1] = molecular target: Thymidine phosphorylase (Escherichia coli K-12) (UniProt P07650); experiment: Inhibition of Escherichia coli Thymidine Phosphorylase at a concentration of 1000 uM after 20 minutes
# [2] = molecular target: Thymidine phosphorylase (Escherichia coli K-12) (UniProt P07650); experiment: Inhibition of Escherichia coli Thymidine Phosphorylase at a concentration of 1000 uM after 60 minutes
# [3] = molecular target: Thymidine phosphorylase (Escherichia coli K-12) (UniProt P07650); experiment: Inhibition of Escherichia coli Thymidine Phosphorylase at a concentration of 1000 uM after 40 minutes
# [4] = molecular target: Thymidine phosphorylase (Escherichia coli) (UniProt P07650); experiment: Inhibition of Escherichia coli TPase at a concentration of 500 uM after 60 minutes
# [5] = molecular target: Thymidine phosphorylase (Escherichia coli) (UniProt P07650); experiment: Inhibition of Escherichia coli TPase at a concentration of 500 uM after 40 minutes
# [6] = molecular target: Thymidine phosphorylase (Escherichia coli) (UniProt P07650); experiment: Inhibition of Escherichia coli TPase at a concentration of 500 uM after 20 minutes
# Sequence of Thymidine phosphorylase (Escherichia coli K-12) (P07650 whole entry, looked up): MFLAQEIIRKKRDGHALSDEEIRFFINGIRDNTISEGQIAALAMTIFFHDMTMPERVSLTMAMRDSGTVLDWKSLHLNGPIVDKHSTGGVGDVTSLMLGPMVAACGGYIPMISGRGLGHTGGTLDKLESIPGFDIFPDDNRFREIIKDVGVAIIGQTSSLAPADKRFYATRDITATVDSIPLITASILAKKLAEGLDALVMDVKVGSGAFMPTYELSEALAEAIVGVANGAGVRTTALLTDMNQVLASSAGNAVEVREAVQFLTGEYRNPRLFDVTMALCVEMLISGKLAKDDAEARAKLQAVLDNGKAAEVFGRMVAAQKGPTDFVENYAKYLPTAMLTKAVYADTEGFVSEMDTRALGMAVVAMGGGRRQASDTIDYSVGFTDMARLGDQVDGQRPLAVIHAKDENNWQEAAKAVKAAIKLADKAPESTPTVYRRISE
# Sequence of Thymidine phosphorylase (Escherichia coli) (P07650 whole entry, looked up): as above
inhibition [1],inhibition [2],inhibition [3],inhibition [4],inhibition [5],inhibition [6],SMILES
97%,94%,96%,,,,O=c1[nH]c(=O)n(CCCCCCCCP(=O)(O)O)c2[nH]ccc12
0%,0%,0%,,,,Cc1cn(CC(O)C(O)COCP(=O)(O)O)c(=O)[nH]c1=O (stereo not given)
0%,0%,0%,,,,Cc1cn(C/C=C\COCP(=O)(OC(C)C)OC(C)C)c(=O)[nH]c1=O
0%,0%,0%,,,,Cc1cn(CCCCOCP(=O)(OC(C)C)OC(C)C)c(=O)[nH]c1=O
0%,0%,0%,,,,Cc1cn(CC(O)C(O)COCP(=O)(OC(C)C)OC(C)C)c(=O)[nH]c1=O (stereo not given)
,,,27%,37%,43%,CCOP(=O)(CCCCCCCCn1c(=O)[nH]c(=O)c2cc[nH]c21)OCC
21%,10%,16%,,,,CCOP(=O)(CCCCCCCCn1c(N)c(Br)c(=O)[nH]c1=O)OCC
34%,17%,22%,,,,Cc1cn(C/C=C\COCOCP(=O)(O)O)c(=O)[nH]c1=O
0%,0%,0%,,,,CCOP(=O)(CCCCCCCn1cc(C)c(=O)[nH]c1=O)OCC
0%,0%,0%,,,,Cc1cn(C/C=C\COCP(=O)(O)O)c(=O)[nH]c1=O
0%,0%,0%,,,,Cc1cn(CC(O)C(O)COCOCP(=O)(O)O)c(=O)[nH]c1=O (stereo not given)
0%,0%,0%,,,,Cc1cn(CCCCOCOCP(=O)(O)O)c(=O)[nH]c1=O
4%,2%,3%,,,,CCOP(=O)(CCCCCCCCCn1cc(C)c(=O)[nH]c1=O)OCC
0%,0%,0%,,,,Cc1cn(CC(O)C(O)COCOCP(=O)(OC(C)C)OC(C)C)c(=O)[nH]c1=O (stereo not given)
0%,0%,0%,,,,Cc1cn(CCCCOCOCP(=O)(OC(C)C)OC(C)C)c(=O)[nH]c1=O
0%,0%,0%,,,,Cc1cn(CCCCCCCCP(=O)(OC(C)C)OC(C)C)c(=O)[nH]c1=O
0%,0%,0%,,,,Cc1cn(C/C=C\COCOCP(=O)(OC(C)C)OC(C)C)c(=O)[nH]c1=O
0%,0%,0%,,,,Cc1cn(COC/C=C\COCP(=O)(O)O)c(=O)[nH]c1=O
11%,2%,5%,,,,Cc1cn(CCCCCCP(=O)(O)O)c(=O)[nH]c1=O
27%,12%,17%,,,,Cc1cn(CCCCOCP(=O)(O)O)c(=O)[nH]c1=O
75%,61%,68%,,,,Cc1cn(CCCCCCCCP(=O)(O)O)c(=O)[nH]c1=O
0%,0%,0%,,,,CCOP(=O)(CCCCCCCCn1cc(C)c(=O)[nH]c1=O)OCC
73%,55%,63%,,,,Cc1cn(CCCCCCCP(=O)(O)O)c(=O)[nH]c1=O
81%,70%,75%,,,,Cc1cn(CCCCCCCCCP(=O)(O)O)c(=O)[nH]c1=O
94%,89%,91%,,,,Nc1c(Br)c(=O)[nH]c(=O)n1CCCCCCCCP(=O)(O)O

# From ChEMBL document CHEMBL1132969, “Design, synthesis, and enzymatic evaluation of multisubstrate analogue inhibitors of Escherichia coli thymidine phosphorylase” (J Med Chem, 2000)
